In ChEMBL document CHEMBL5649166, “RIP3 induces apoptosis independent of pronecrotic kinase activity” (Mol Cell, 2014) one finds residual activity data, which are given here for three compounds.

The target in test [1] is RAC-alpha serine/threonine-protein kinase (Homo sapiens) (UniProt P31749). Description: Inhibition of human AKT1 using KGSGSGRPRTSSFAEG as substrate at 1 uM in presence of 32P-ATP by Hotspot assay relative to control; values are per cent of control.
The target of test [2] is T1, Ephrin type-B receptor 3 (Homo sapiens) (UniProt P54753).
T1 sequence (whole entry): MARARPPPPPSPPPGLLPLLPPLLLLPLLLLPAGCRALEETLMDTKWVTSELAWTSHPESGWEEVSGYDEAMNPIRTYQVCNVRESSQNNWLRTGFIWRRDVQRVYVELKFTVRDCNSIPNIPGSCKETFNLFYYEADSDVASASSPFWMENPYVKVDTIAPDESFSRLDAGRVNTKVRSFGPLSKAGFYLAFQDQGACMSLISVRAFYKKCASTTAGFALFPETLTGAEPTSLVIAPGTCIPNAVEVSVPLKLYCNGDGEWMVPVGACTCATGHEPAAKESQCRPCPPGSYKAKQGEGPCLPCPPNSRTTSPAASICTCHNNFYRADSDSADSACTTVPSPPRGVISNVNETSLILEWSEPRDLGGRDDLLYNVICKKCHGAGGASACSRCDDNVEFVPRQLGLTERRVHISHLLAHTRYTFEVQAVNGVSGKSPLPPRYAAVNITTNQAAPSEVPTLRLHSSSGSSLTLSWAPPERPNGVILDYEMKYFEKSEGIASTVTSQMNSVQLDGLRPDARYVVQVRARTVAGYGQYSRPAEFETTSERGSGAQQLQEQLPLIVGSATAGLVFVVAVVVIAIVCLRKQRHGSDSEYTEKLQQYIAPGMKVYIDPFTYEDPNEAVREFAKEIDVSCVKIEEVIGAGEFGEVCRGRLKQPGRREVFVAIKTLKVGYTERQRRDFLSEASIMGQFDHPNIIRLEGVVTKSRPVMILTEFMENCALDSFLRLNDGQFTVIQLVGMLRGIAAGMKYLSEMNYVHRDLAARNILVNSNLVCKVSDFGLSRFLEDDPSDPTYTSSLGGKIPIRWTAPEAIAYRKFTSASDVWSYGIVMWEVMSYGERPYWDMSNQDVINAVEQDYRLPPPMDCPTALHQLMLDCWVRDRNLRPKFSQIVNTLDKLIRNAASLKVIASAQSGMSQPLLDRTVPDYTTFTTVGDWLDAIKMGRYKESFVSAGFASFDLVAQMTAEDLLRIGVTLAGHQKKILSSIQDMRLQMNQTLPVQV
Description: Residual activity of human EPHB3 using poly[Glu:Tyr] (4:1) as substrate at 1 uM in presence of 32P-ATP by Hotspot assay relative to control.

In test [3] the target is Leucine-rich repeat serine/threonine-protein kinase 2 (Homo sapiens) (UniProt Q5S007). The test is described as follows: Inhibition of human LRRK2 using RLGRDKYKTLRQIRQ as substrate at 1 uM in presence of 32P-ATP by Hotspot assay relative to control; values are per cent of control.
Chain of Leucine-rich repeat serine/threonine-protein kinase 2 (Homo sapiens) (Q5S007 whole entry): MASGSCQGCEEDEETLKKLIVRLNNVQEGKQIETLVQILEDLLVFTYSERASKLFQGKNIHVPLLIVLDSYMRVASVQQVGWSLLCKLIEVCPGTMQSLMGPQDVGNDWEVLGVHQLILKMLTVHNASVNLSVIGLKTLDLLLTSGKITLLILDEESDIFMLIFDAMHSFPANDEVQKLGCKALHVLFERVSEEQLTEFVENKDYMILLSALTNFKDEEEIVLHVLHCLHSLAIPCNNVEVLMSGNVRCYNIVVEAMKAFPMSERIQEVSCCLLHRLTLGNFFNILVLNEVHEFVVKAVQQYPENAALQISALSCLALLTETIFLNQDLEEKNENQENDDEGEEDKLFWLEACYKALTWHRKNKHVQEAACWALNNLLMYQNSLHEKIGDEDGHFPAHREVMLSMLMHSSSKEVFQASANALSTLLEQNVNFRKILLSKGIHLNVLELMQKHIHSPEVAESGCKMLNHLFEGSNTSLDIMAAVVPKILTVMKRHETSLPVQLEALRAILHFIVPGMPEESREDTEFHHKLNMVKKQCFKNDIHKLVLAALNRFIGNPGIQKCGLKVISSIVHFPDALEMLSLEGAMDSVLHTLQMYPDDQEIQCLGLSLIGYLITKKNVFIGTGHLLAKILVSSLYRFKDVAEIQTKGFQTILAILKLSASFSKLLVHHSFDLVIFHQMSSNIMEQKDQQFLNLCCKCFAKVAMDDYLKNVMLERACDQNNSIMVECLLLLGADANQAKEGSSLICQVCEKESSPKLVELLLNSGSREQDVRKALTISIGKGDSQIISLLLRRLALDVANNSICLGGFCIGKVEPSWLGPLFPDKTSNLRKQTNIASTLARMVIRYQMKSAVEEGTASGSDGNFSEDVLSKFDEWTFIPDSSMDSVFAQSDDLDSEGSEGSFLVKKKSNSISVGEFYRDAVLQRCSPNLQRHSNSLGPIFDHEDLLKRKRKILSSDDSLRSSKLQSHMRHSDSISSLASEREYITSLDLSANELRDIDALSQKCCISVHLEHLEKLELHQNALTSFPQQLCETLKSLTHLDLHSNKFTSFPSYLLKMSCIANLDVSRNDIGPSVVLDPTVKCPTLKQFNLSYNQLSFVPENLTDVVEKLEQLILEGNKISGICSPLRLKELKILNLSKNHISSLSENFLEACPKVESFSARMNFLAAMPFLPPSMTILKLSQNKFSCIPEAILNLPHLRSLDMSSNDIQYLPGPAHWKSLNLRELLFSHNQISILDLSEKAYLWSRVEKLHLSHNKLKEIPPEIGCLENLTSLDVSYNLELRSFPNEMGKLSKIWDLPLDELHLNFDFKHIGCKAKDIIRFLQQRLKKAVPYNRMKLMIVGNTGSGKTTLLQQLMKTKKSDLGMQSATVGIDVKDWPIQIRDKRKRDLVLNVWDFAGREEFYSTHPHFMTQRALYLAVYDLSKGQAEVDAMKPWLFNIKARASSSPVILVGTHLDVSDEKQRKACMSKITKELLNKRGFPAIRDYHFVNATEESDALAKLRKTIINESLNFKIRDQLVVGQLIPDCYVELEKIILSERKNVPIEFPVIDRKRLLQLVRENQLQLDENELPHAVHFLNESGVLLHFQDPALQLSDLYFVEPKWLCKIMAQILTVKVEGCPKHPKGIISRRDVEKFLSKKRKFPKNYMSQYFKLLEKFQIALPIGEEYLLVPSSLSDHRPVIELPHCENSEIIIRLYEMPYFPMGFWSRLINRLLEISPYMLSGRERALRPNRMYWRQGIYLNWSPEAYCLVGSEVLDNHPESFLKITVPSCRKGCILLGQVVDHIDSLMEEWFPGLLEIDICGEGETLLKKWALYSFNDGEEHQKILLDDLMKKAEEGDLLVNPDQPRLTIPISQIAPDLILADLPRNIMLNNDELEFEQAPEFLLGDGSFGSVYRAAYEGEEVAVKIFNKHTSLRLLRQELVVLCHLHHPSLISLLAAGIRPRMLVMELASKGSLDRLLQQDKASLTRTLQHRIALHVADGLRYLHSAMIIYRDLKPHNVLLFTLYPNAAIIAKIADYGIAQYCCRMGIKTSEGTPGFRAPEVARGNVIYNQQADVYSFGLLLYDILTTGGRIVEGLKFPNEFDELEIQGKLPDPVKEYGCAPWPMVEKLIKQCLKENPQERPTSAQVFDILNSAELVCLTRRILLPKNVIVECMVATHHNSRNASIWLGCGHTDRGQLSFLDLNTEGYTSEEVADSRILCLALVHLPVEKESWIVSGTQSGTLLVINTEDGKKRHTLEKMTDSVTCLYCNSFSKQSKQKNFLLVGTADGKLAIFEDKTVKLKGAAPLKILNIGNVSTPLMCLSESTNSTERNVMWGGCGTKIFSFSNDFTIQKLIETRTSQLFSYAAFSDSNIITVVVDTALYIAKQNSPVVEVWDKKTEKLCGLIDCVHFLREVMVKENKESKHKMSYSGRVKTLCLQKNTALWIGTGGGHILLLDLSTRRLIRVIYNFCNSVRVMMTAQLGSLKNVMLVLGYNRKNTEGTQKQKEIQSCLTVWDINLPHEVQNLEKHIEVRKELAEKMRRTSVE
Test [4] addresses Mitogen-activated protein kinase 1 (Homo sapiens) (UniProt P28482). The test is described as follows: Inhibition of human ERK2/MAPK1 using myelin basic protein as substrate at 1 uM in presence of 32P-ATP by Hotspot assay relative to control; values are per cent of control.
Test [5] has as its target T2, Ephrin type-A receptor 8 (Homo sapiens) (UniProt P29322).
T2 sequence (whole entry): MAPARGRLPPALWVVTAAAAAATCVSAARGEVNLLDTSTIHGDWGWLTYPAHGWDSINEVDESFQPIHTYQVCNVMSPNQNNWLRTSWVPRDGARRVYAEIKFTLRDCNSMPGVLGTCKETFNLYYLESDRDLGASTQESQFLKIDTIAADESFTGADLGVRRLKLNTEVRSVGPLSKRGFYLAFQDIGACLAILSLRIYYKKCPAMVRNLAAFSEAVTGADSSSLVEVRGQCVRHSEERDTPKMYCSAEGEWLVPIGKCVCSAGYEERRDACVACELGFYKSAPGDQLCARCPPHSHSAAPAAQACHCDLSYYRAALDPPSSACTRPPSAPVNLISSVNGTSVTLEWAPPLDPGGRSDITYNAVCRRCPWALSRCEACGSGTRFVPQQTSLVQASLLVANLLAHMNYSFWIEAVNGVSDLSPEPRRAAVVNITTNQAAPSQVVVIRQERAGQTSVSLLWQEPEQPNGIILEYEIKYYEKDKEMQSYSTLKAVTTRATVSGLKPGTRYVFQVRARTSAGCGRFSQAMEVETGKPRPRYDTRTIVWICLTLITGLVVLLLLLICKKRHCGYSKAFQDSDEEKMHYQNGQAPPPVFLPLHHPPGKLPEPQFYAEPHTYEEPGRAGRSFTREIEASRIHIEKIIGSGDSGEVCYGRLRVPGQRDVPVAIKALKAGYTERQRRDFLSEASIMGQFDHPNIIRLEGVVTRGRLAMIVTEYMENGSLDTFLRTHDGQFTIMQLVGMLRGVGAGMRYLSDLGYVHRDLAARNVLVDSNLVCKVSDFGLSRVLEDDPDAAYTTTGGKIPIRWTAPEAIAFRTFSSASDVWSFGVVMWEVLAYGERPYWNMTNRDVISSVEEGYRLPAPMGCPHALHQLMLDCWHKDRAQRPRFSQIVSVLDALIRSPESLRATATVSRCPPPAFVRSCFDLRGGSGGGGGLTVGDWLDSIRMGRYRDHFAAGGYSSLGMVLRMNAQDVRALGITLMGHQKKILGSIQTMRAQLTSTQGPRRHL
Description: Inhibition of human EPHA8 using poly[Glu:Tyr] (4:1) as substrate at 1 uM in presence of 32P-ATP by Hotspot assay relative to control; values are per cent of control.

Test [6] concerns the target Serine/threonine-protein kinase 33 (Homo sapiens) (UniProt Q9BYT3). The test is described as follows: Inhibition of human STK33 using myelin basic protein as substrate at 1 uM in presence of 32P-ATP by Hotspot assay relative to control; values are per cent of control.
In test [7] the target is LIM domain kinase 1 (Homo sapiens) (UniProt P53667). Description: Inhibition of human LIMK1 using cofilin 1 as substrate at 1 uM in presence of 32P-ATP by Hotspot assay relative to control; values are per cent of control.
Chain of LIM domain kinase 1 (Homo sapiens) (P53667 whole entry, looked up, the tested form may be a part): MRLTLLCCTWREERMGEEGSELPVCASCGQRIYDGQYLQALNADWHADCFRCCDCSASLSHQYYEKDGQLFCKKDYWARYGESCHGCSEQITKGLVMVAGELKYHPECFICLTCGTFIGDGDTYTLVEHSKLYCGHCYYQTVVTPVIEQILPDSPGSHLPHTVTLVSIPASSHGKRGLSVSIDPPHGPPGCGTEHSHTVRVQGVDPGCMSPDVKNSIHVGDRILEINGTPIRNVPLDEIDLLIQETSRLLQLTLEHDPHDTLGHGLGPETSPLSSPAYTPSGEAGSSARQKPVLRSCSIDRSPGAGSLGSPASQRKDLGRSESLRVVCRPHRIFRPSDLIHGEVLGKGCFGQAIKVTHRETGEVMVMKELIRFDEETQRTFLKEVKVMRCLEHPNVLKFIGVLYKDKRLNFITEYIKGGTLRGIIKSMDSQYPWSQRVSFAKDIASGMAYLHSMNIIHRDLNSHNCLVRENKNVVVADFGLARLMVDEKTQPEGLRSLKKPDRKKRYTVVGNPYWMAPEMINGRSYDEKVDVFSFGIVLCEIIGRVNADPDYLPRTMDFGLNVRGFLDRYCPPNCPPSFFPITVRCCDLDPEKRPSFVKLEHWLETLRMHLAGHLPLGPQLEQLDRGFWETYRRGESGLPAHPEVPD
The target of test [8] is Serine/threonine-protein kinase OSR1 (Homo sapiens) (UniProt O95747). Description: Inhibition of human OSR1/OXSR1 using RRHYYYDTHTNTYYLRTFGHNTRR as substrate at 1 uM in presence of 32P-ATP by Hotspot assay relative to control; values are per cent of control.
Chain of Serine/threonine-protein kinase OSR1 (Homo sapiens) (O95747 2-527 limits assumed): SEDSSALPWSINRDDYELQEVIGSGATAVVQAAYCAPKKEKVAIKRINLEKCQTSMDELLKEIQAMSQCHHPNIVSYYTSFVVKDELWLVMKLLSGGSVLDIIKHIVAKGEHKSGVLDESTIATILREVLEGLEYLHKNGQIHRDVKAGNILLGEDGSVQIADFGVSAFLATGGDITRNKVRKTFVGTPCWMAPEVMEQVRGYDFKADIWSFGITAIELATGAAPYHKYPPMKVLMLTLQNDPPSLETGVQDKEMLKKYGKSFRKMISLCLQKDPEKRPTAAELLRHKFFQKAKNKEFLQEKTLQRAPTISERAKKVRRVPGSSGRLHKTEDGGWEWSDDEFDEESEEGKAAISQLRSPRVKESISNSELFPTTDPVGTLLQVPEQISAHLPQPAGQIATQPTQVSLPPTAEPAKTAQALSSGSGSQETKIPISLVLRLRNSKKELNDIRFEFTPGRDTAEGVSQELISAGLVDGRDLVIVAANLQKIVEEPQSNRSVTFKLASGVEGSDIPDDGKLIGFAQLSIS
Test [9] deals with Casein kinase II subunit alpha' (Homo sapiens) (UniProt P19784). Description: Inhibition of human CK2a2 using RRRDDDSDDD as substrate at 1 uM in presence of 32P-ATP by Hotspot assay relative to control; values are per cent of control.
Chain of Casein kinase II subunit alpha' (Homo sapiens) (P19784 whole entry, looked up): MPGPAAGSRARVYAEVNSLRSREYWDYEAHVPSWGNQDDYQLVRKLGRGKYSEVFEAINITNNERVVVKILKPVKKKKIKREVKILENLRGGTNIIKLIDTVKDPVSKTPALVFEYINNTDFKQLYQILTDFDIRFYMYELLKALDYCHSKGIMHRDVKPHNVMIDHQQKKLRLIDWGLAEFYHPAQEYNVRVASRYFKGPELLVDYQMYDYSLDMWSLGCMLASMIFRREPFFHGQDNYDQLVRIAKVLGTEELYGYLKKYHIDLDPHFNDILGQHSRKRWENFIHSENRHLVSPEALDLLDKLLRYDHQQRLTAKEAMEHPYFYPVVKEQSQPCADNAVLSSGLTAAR

Chain of Serine/threonine-protein kinase 33 (Homo sapiens) (Q9BYT3 whole entry, looked up, the tested form may be a part): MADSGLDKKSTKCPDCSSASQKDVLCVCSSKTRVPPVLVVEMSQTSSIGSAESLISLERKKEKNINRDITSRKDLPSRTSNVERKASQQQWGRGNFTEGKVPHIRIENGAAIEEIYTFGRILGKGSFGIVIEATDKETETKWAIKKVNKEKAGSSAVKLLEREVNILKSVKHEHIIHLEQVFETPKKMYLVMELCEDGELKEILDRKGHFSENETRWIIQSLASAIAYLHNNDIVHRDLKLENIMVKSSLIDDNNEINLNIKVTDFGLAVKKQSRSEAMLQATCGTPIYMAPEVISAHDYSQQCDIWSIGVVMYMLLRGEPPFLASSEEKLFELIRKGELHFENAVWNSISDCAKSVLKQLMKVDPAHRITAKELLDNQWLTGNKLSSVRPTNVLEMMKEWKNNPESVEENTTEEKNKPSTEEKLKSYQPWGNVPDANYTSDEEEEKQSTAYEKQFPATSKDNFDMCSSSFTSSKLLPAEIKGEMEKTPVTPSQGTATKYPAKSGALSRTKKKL
Chain of RAC-alpha serine/threonine-protein kinase (Homo sapiens) (P31749 whole entry): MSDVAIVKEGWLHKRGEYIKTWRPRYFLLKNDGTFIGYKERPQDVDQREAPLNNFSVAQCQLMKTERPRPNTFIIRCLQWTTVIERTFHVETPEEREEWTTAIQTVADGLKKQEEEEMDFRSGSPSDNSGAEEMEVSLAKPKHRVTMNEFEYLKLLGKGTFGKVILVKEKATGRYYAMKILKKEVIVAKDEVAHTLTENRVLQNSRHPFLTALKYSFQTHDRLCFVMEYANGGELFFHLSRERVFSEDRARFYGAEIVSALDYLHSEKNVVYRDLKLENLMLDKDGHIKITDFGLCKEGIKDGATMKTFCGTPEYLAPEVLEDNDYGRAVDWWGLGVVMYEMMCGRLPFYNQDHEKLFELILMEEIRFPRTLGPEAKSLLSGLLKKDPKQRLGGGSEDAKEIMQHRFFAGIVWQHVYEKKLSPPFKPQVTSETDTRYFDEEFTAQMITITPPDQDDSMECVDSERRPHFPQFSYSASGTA

As for `Cc1cc(-c2cnc(N)c3c(-c4ccc5scnc5c4)csc23)n(C)n1`, the residual activity in [1] was found to be 98.9%; in [2], 91.4%; in [3] it was 88.5%; in test [4], 109%; in test [5], 62.7%; in test [6], 99%. In addition, the residual activity in [7] stood at 65.6%; in test [8], 97.4%; in test [9] it was 88.9%.

`CC(C)S(=O)(=O)c1ccc2nccc(Nc3ccc4scnc4c3)c2c1`: the residual activity in test [1] came out at 97.6%; in test [2], 61.2%; in [3], 90.5%; in test [4], 94.6%; in [5], 42.8%; in [6], 103%. The residual activity in test [7] amounted to 93%; in test [8], 97.8%; in [9], 97.1%.

As to `CNC(=O)c1ccc2c(c1)ncn2-c1ccc(CC(=O)OC(C)(C)C)cc1`, the residual activity was determined as 91.3% in [1]; 93.6% in [2]; 94.5% in [3]; 99.8% in test [4]; 96.7% in test [5]; 102% in [6]. For the same compound, the residual activity in test [7] was 72.9%; in [8] it was 98.2%; in test [9], 96.3%.
